According to PubChem BioAssay AID1963446 (Molecular Pharmacology Branch, DTP, NCI, 2024):
Several values for one entry are separate records, joined by “and”; a condition that tells them apart may be missing. Equal entries are not always repeated.

Test system: 993429-296-R-J1-PDC complex spheroid growth, percent test/control
Test: Anticancer human tumor 993429-296-R-J1-PDC patient-derived uterine sarcoma cell line growth inhibition [Asc]
Details: for viability, T/C: stronger effect = lower value
Experimental: Multicellular complex tumor spheroid response to apoptosis pathway targeting inhibitors Alrizomadlin, Pelcitoclax, and Dasminapant in combination with a variety of drugs and investigational agents in selected tumor cell lines
The MDM2 inhibitor alrizomadlin, the Bcl-2/Bcl-xL inhibitor pelcitoclax, and the IAPs inhibitor dasminapant were evaluated both individually and in combination with standard of care and investigational anticancer small molecules within a complex spheroid model of solid tumors. . Complex spheroids include a stromal component modeled by human endothelial cells (HUVEC) and fibroblasts modeled by human mesenchymal stem cells (MSCs). The concentration ranges selected for each drug and investigational agent were based upon clinically achievable concentrations if the clinical Cmax of the agent was known.
Compounds. The drugs and investigational agents: alrizomadlin (APG-115; NSC831270), pelcitoclax (APG-1252; NSC835773), dasminapant (APG-1387;NSC834197), TAK-243 (NSC785004), copanlisib (NSC809693), olaparib (NSC753686), talazoparib (NSC767125), cobimetinib (NSC 768068), eltanexor (KPT-8602, NSC 794443), abemaciclib (NSC 768073), sotorasib (NSC818433), adagrasib (NSC 831453), MRTX-1133 (NSC 836407), Iadademestat (ORY1001, NSC 806812), and RMC-4630 (NSC839698), were obtained from the NCI Developmental Therapeutics Program Chemical Repository. The FDA-approved anticancer drug set is available from the Developmental Therapeutics Program at https://dtp.cancer.gov/organization/dscb/obtaining/available plates.htm. […] The stock solutions were prepared in dimethyl sulfoxide (DMSO, Sigma-Aldrich, St. Louis, MO, cat. D2650) at 800-fold the tested concentration and stored at -70 degrees C prior to their use. All drugs and investigational agents were tested over a range starting from a high concentration at or near the clinical Cmax and decreasing in half-log increments. If the clinical Cmax for an agent had not been determined, the highest concentration tested was 10 microM.
The patient-derived cancer (PDC) cell lines include five colon adenocarcinomas: 186277-243-T-J2-PDC, 616215-338-R-J1-PDC, 439559-082-T-J2-PDC, 463943-066-T-J2-PDC, and 519858-162-T-J1-PDC; three pancreatic carcinomas: 323965-272-R-J2-PDC, 521955-158-R6-J3-PDC, and 521955-158-R2-J5-PDC; two uterine sarcomas: 327498-152-R-J2-PDC and 993429-296-R-J1-PDC; two rhabdomyosarcomas: 755483-174-R-J1-PDC and 772245-204-R-J1-PDC; two soft tissue sarcomas: 126254-015-R-J1-PDC and 494315-158-R-J1-PDC; two malignant fibrous histiocytomas: 317291-083-R-J1-PDC and 596521-263-R-J1-PDC; two breast carcinomas: 171881-019-R-J1-PDC and 885512-296-R-J2-PDC; and one ovarian carcinoma: 6556581-035-R-J-PDC were obtained from the NCI PDMR, (https://pdmr.cancer.gov). The established cell lines HSSY-2 synovial sarcoma (RRID:CVCL 8719), SYO-1 synovial sarcoma (RRID:CVCL_7146), MPNST malignant peripheral neural sheath tumor were obtained from the Sloan Kettering Institute. The following established cell lines were purchased from the American Type Culture Collection (ATCC, Manassas, VA), Sor the received from the NCI repository:, PANC-1 pancreatic carcinoma (CRL-1469, RRID:CVCL_0480), OVCAR-5 ovarian carcinoma (RRID:CVCL_1628), OVCAR-8 ovarian carcinoma (RRID:CVCL_1629), , MCF-7 breast carcinoma (CRL-12584, RRID:CVCL_0031), MDA-MB-231 breast carcinoma (CRL-12532, RRID:CVCL_0062), NCI-H1876 small cell lung carcinoma (CRL-5902, RRID:CVCL_1503), NCI-H510A small cell lung carcinoma (HTB-184, RRID:CVCL_1565), NCI-H1417 (CRL-5869, RRID:CVCL_1469), and NCI-H196 small cell lung carcinoma (CRL-5823, RRID:CVCL_1509). Dr. Peter Houghton (Greehey Children's Cancer Research Institute, University of Texas Health Science Center, San Antonio, TX) provided Rh-18 rhabdomyosarcoma (RRID:CVCL_1659). Pooled donor human umbilical vein endothelial cells (HUVEC, Lonza, cat. CC-2519) and human mesenchymal stem cells (hMSC, Lonza, cat. PT-2501) were purchased from Lonza (Walkersville, MD).
Cell Culture. […]
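Note: spheroids exposed to compounds for seven days.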

`C=CC(=O)N1CCN(c2nc(=O)n(-c3c(C)ccnc3C(C)C)c3nc(-c4c(O)cccc4F)c(F)cc23)C(C)C1` (configuration not stated) + Cc1c(S(C)(=O)=O)c(-c2cc(F)cc(N3CCN(c4ccc(NS(=O)(=O)c5ccc(NC(CCN6CCC(C(=O)OCCCP(=O)(O)O)CC6)CSc6ccccc6)c(S(=O)(=O)C(F)(F)F)c5)cc4)CC3)c2)c(-c2ccc(Cl)cc2)n1C(C)C showed an IC50 (curve of first compound, second compound 0.1 µM) greater than 10 µM, an IC50 (curve of first compound, second compound 0.316 µM) of 4.92 µM and an IC50 (curve of first compound, second compound 1 µM) of 4.34 µM. The IC50 (curve of first compound, second compound 3.16 µM) was 0.524 µM, the IC50 (curve of first compound, second compound 10 µM) was 5.69 µM and the viability, T/C (second compound 0.1 µM, first compound 0.0316 µM) was 83.5%. For the same compound, the viability, T/C (second compound 0.1 µM, first compound 0.1 µM) was 81.1%, the viability, T/C (second compound 0.1 µM, first compound 0.316 µM) was 91.9% and the viability, T/C (second compound 0.1 µM, first compound 1 µM) was 75.1%. The viability, T/C (second compound 0.1 µM, first compound 3.16 µM) was 76.5%, the viability, T/C (second compound 0.1 µM, first compound 10 µM) was 54.6% and the viability, T/C (second compound 0.316 µM, first compound 0.0316 µM) was 79%. The viability, T/C (second compound 0.316 µM, first compound 0.1 µM) was 80.6%, the viability, T/C (second compound 0.316 µM, first compound 0.316 µM) was 69.2% and the viability, T/C (second compound 0.316 µM, first compound 1 µM) was 75%. For the same compound, the viability, T/C (second compound 0.316 µM, first compound 3.16 µM) was 62.3%, the viability, T/C (second compound 0.316 µM, first compound 10 µM) was 30.5% and the viability, T/C (second compound 1 µM, first compound 0.0316 µM) was 62.9%. For the same compound, the viability, T/C (second compound 1 µM, first compound 0.1 µM) was 53.5%, the viability, T/C (second compound 1 µM, first compound 0.316 µM) was 76.8% and the viability, T/C (second compound 1 µM, first compound 1 µM) was 62.1%. For the same compound, the viability, T/C (second compound 1 µM, first compound 3.16 µM) was 47.3%, the viability, T/C (second compound 1 µM, first compound 10 µM) was 41.8% and the viability, T/C (second compound 3.16 µM, first compound 0.0316 µM) was 51.1%. The viability, T/C (second compound 3.16 µM, first compound 0.1 µM) was 59.9%, the viability, T/C (second compound 3.16 µM, first compound 0.316 µM) was 54.4% and the viability, T/C (second compound 3.16 µM, first compound 1 µM) was 43.8%. For the same compound, the viability, T/C (second compound 3.16 µM, first compound 3.16 µM) was 34.9%, the viability, T/C (second compound 3.16 µM, first compound 10 µM) was 45.9% and the viability, T/C (second compound 10 µM, first compound 0.0316 µM) was 106%. The viability, T/C (second compound 10 µM, first compound 0.1 µM) was 81%, the viability, T/C (second compound 10 µM, first compound 0.316 µM) was 86.6% and the viability, T/C (second compound 10 µM, first compound 1 µM) was 86.1%. For the same compound, the viability, T/C (second compound 10 µM, first compound 3.16 µM) was 64.7% and the viability, T/C (second compound 10 µM, first compound 10 µM) was 34.9%.
`O=C(c1cc(Cc2n[nH]c(=O)c3ccccc23)ccc1F)N1CCN(C(=O)C2CC2)CC1` was tested, and the viability, T/C (compound 0.0316 µM) was 83.4% and 99.6% and 106%, the viability, T/C (compound 0.1 µM) was 84.4% and 88.2% and 103% and the viability, T/C (compound 0.316 µM) was 90.3% and 89.3% and 93%. The viability, T/C (compound 1 µM) was 72.8% and 82.6% and 105%, the viability, T/C (compound 3.16 µM) was 67.7% and 68.7% and 83.8% and the viability, T/C (compound 10 µM) was 25.3% and 43% and 44.8%. For the same compound, the IC50 (curve of compound) was 4.95 µM and 7.38 µM and 8.57 µM.
